From patent publication US10457710B2, “Antimicrobial peptides, their variants and uses” (priority 2015, dated 2019)
Where a SMILES comes first, the peptide text is derived from it. [ ]: non-standard residue; d: D form.

Experiments:
Assay type in all cases: cell-based
C. glabrata = experiment: MIC, clinical yeast strains
Description: (§1) Minimum inhibition concetrations (MICs) were determined against Escherichia coli (ATCC 25922), Staphylococcus aureus (ATCC 25923), Klebsiella pneumoniae (ATCC 10031) and Pseudomonas aeruginosa (ATCC 27853). Also clinical strains of E. coli, K. pneumoniae, E. cloacae, P. aeruginosa, Serratia marcescens, Proteus mirabilis, S. pneumoniae, Acinetobacter baumannii, A. johnsonii and S. aureus were used for MICs assays. Additionally, clinical strains of yeast including Candida albicans, C. glabrata, C. parapsilosis and C. quillermondiae were used. The susceptibility of these microorganisms to Chain peptides were determined using micro broth dilution assay. Colonies of the respective microorganism from Muller Hinton (MH) agar plates incubated overnight were suspended in MH broth media and final concentration of microorganism was adjusted to 5.0×10^5 cfu/ml. An aliquot of 10 μl of each Chain peptide, or gentamicin, tetracycline as reference antibiotics were added in differing concentrations along with 90 μl of bacterial suspension to 96 well polypropylene plates and incubated at 37° C. for 20 to 24 hours. Concentrations of Chain peptides and reference antibiotics ranged from 0.125 to 128 μg/ml and the MICs were recorded as the lowest concentration with no visual growth of bacteria. Similarly, antifungal MICs were tested in Potato dextrose broth.
(§2) Clinical strains of yeasts including Candida albicans, C. glabrata, C. parapsilosis and C. quillermondiae were also tested with the 12 Chain peptides. The minimum inhibitory concentration (MICs) varied between these peptides and are presented in Tables 4a, 4b, 4c and 5a, 5b, 5c. Peptides Chain 105, 201 and 308 are broad spectrum antimicrobials with MICs between 0.5-32 μg/ml against all the bacteria and yeasts tested, except Serratia marcescens and Proteus mirabilis, against which the MICs were between 64-128 μg/ml. Peptide Chain 306 has narrow spectrum activity against E. coli at 1 μg/ml and for the rest of the bacterial strains at >32 μg/ml (FIG. 10c).

C. parapsilosis = experiment: MIC, clinical yeast strains
Description: as §1, §2

Candida albicans = experiment: MIC, clinical yeast strains
Description: as §1, §2

C. quillermondiae = experiment: MIC, clinical yeast strains; parameters: Minimum inhibitory concentration: unit: μg/ml; details: C. quillermondiae clinical yeast strain 1
Description: as §1, §2

[1] = test system: clinical strains of E. cloacae; experiment: MIC, microdilution, clinical strains; details: 0.02% BSA, 0.2% acetic acid
Description: as §1, §2

[2] = test system: clinical strains of E. coli; experiment: MIC, microdilution, clinical strains; details: microdilution, Muller Hinton broth-cation adjusted, 0.02% BSA, 0.2% acetic acid
Description: as §1, §2

[3] = test system: clinical strains of K. pneumoniae; experiment: MIC, microdilution, clinical strains; details: 0.02% BSA, 0.2% acetic acid
Description: as §1, §2

[4] = test system: clinical strains of P. aeruginosa; experiment: MIC, microdilution, clinical strains; details: 0.02% BSA, 0.2% acetic acid
Description: as §1, §2

[5] = test system: clinical strains of Proteus mirabilis; experiment: MIC, microdilution, clinical strains; details: 0.02% BSA, 0.2% acetic acid
Description: as §1, §2

[6] = test system: clinical strains of S. aureus; experiment: MIC, microdilution, clinical strains; details: 0.02% BSA, 0.2% acetic acid
Description: as §1, §2

[7] = test system: clinical strains of S. pneumoniae; experiment: MIC, microdilution, clinical strains; details: 0.02% BSA, 0.2% acetic acid
Description: as §1, §2

[8] = test system: clinical strains of Serratia marcescens; experiment: MIC, microdilution, clinical strains; details: 0.02% BSA, 0.2% acetic acid
Description: as §1, §2

[9] = C. glabrata clinical yeast strain 1
[10] = C. glabrata clinical yeast strain 2
[11] = C. glabrata clinical yeast strain 3
[12] = C. glabrata clinical yeast strain 4
[13] = C. parapsilosis clinical yeast strain 1
[14] = C. parapsilosis clinical yeast strain 2
[15] = C. parapsilosis clinical yeast strain 3
[16] = C. parapsilosis clinical yeast strain 4
[17] = Candida albicans clinical yeast strain 1
[18] = Candida albicans clinical yeast strain 2
[19] = Candida albicans clinical yeast strain 3
[20] = Candida albicans clinical yeast strain 4
[21] = Candida albicans clinical yeast strain 5

Question: Which Minimum inhibitory concentration (C. glabrata; [9]) does the source give for `C[C@@H]1[C@H](O)[C@@H](C)/C=C/C=C/C=C/C=C/C=C/C=C/C=C/[C@H](O[C@@H]2O[C@H](C)[C@@H](O)[C@H](N)[C@@H]2O)C[C@@H]2O[C@](O)(C[C@@H](O)C[C@@H](O)[C@H](O)CC[C@@H](O)C[C@@H](O)CC(=O)O[C@H]1C)C[C@H](O)[C@H]2C(=O)O` [Amphotericin B] here?
Answer: The Minimum inhibitory concentration was 4.

Question: What about the Minimum inhibitory concentration (C. glabrata; [10]) of the same molecule?
Answer: Its Minimum inhibitory concentration is 4.

Question: And the Minimum inhibitory concentration (C. glabrata; [11])?
Answer: Its Minimum inhibitory concentration is 2.

Question: What about the Minimum inhibitory concentration (C. glabrata; [12]) of the same molecule?
Answer: The Minimum inhibitory concentration was 4.

Question: And the Minimum inhibitory concentration (C. parapsilosis; [13])?
Answer: The Minimum inhibitory concentration was 2.

Question: What about the Minimum inhibitory concentration (C. parapsilosis; [14]) of the same molecule?
Answer: The Minimum inhibitory concentration was 2.

Question: And the Minimum inhibitory concentration (C. parapsilosis; [15])?
Answer: Its Minimum inhibitory concentration is 2.

Question: And the Minimum inhibitory concentration (C. parapsilosis; [16])?
Answer: The Minimum inhibitory concentration was 2.

Question: And the Minimum inhibitory concentration (Candida albicans; [17])?
Answer: Its Minimum inhibitory concentration is 2.

Question: And the Minimum inhibitory concentration (Candida albicans; [18])?
Answer: The Minimum inhibitory concentration was 0.5.

Question: And the Minimum inhibitory concentration (Candida albicans; [19])?
Answer: The Minimum inhibitory concentration was 2.

Question: And the Minimum inhibitory concentration (Candida albicans; [20])?
Answer: The Minimum inhibitory concentration was 2.

Question: And the Minimum inhibitory concentration (Candida albicans; [21])?
Answer: Its Minimum inhibitory concentration is 2.

Question: What about the Minimum inhibitory concentration (C. quillermondiae) of the same molecule?
Answer: Its Minimum inhibitory concentration is 2.

Question: `CC[C@@H](C)[C@@H](N)C(=O)N[C@H](Cc1c[nH]c2ccccc12)C(=O)N[C@H](CCCCN)C(=O)N[C@H](CCCNC(=N)N)C(=O)N[C@H](Cc1ccccc1)C(=O)N[C@H](CCCNC(=N)N)C(=O)N[C@H](CC(C)C)C(=O)N[C@H](Cc1ccccc1)C(=O)N[C@H](CCCCN)C(=O)N[C@H](CCCCN)C(=O)N[C@H](Cc1c[nH]c2ccccc12)C(=O)O` [Chain304D] (H-[dI][dW][dK][dR][dF][dR][dL][dF][dK][dK][dW]-OH) was tested. Which Minimum inhibitory concentration ([1]; Enterobacter cloacae strain 1, Muller Hinton broth-cation adjusted) did it give?
Answer: Its Minimum inhibitory concentration is 64.

Question: And the Minimum inhibitory concentration ([1]; Enterobacter cloacae strain 2, Muller Hinton broth-cation adjusted)?
Answer: The Minimum inhibitory concentration was 64.

Question: And the Minimum inhibitory concentration ([1]; Enterobacter cloacae strain 3, Muller Hinton broth-cation adjusted)?
Answer: Its Minimum inhibitory concentration is 128.

Question: What about the Minimum inhibitory concentration ([1]; Enterobacter cloacae strain 4, Muller Hinton broth-cation adjusted) of the same molecule?
Answer: The Minimum inhibitory concentration was 128.

Question: And the Minimum inhibitory concentration ([1]; Enterobacter cloacae strain 5, Muller Hinton broth-cation adjusted)?
Answer: The Minimum inhibitory concentration was 32.

Question: And the Minimum inhibitory concentration ([2]; Escherichia coli strain 1)?
Answer: The Minimum inhibitory concentration was 1.

Question: What about the Minimum inhibitory concentration ([2]; Escherichia coli strain 2) of the same molecule?
Answer: The Minimum inhibitory concentration was 16.

Question: What about the Minimum inhibitory concentration ([2]; Escherichia coli strain 3) of the same molecule?
Answer: Its Minimum inhibitory concentration is 16.

Question: What about the Minimum inhibitory concentration ([2]; Escherichia coli strain 4) of the same molecule?
Answer: Its Minimum inhibitory concentration is 32.

Question: What about the Minimum inhibitory concentration ([2]; Escherichia coli strain 5) of the same molecule?
Answer: Its Minimum inhibitory concentration is 32.

Question: And the Minimum inhibitory concentration ([3]; Klebsiella pneumoniae strain 1, Muller Hinton broth-cation adjusted)?
Answer: The Minimum inhibitory concentration was over 128.

Question: And the Minimum inhibitory concentration ([3]; Klebsiella pneumoniae strain 2, Muller Hinton broth-cation adjusted)?
Answer: Its Minimum inhibitory concentration is over 128.

Question: What about the Minimum inhibitory concentration ([3]; Klebsiella pneumoniae strain 3, Muller Hinton broth-cation adjusted) of the same molecule?
Answer: The Minimum inhibitory concentration was over 128.

Question: What about the Minimum inhibitory concentration ([3]; Klebsiella pneumoniae strain 4, Muller Hinton broth-cation adjusted) of the same molecule?
Answer: Its Minimum inhibitory concentration is over 128.

Question: And the Minimum inhibitory concentration ([3]; Klebsiella pneumoniae strain 5, Muller Hinton broth-cation adjusted)?
Answer: The Minimum inhibitory concentration was 64.

Question: What about the Minimum inhibitory concentration ([4]; Pseudomonas aeruginosa strain 1, Muller Hinton broth-cation adjusted) of the same molecule?
Answer: Its Minimum inhibitory concentration is 32.

Question: What about the Minimum inhibitory concentration ([4]; Pseudomonas aeruginosa strain 2, Muller Hinton broth-cation adjusted) of the same molecule?
Answer: Its Minimum inhibitory concentration is 64.

Question: And the Minimum inhibitory concentration ([4]; Pseudomonas aeruginosa strain 3, Muller Hinton broth-cation adjusted)?
Answer: Its Minimum inhibitory concentration is 64.

Question: What about the Minimum inhibitory concentration ([4]; Pseudomonas aeruginosa strain 4, Muller Hinton broth-cation adjusted) of the same molecule?
Answer: Its Minimum inhibitory concentration is 64.

Question: And the Minimum inhibitory concentration ([4]; Pseudomonas aeruginosa strain 5, Muller Hinton broth-cation adjusted)?
Answer: Its Minimum inhibitory concentration is 16.

Question: And the Minimum inhibitory concentration ([5]; Proteus mirabilis strain 1, Muller Hinton broth-cation adjusted)?
Answer: Its Minimum inhibitory concentration is over 128.

Question: And the Minimum inhibitory concentration ([5]; Proteus mirabilis strain 2, Muller Hinton broth-cation adjusted)?
Answer: The Minimum inhibitory concentration was over 128.

Question: And the Minimum inhibitory concentration ([5]; Proteus mirabilis strain 3, Muller Hinton broth-cation adjusted)?
Answer: The Minimum inhibitory concentration was over 128.

Question: What about the Minimum inhibitory concentration ([5]; Proteus mirabilis strain 4, Muller Hinton broth-cation adjusted) of the same molecule?
Answer: Its Minimum inhibitory concentration is over 128.

Question: And the Minimum inhibitory concentration ([5]; Proteus mirabilis strain 5, Muller Hinton broth-cation adjusted)?
Answer: The Minimum inhibitory concentration was over 128.

Question: And the Minimum inhibitory concentration ([6]; Staphylococcus aureus strain 1, Muller Hinton broth-cation adjusted)?
Answer: The Minimum inhibitory concentration was 32.

Question: What about the Minimum inhibitory concentration ([6]; Staphylococcus aureus strain 2, Muller Hinton broth-cation adjusted) of the same molecule?
Answer: Its Minimum inhibitory concentration is 32.

Question: And the Minimum inhibitory concentration ([6]; Staphylococcus aureus strain 3, Muller Hinton broth-cation adjusted)?
Answer: The Minimum inhibitory concentration was 16.

Question: What about the Minimum inhibitory concentration ([6]; Staphylococcus aureus strain 4, Muller Hinton broth-cation adjusted) of the same molecule?
Answer: Its Minimum inhibitory concentration is 16.

Question: And the Minimum inhibitory concentration ([6]; Staphylococcus aureus strain 5, Muller Hinton broth-cation adjusted)?
Answer: The Minimum inhibitory concentration was 16.

Question: What about the Minimum inhibitory concentration ([7]; Streptococcus pneumoniae strain 1, Muller Hinton broth-cation adjusted) of the same molecule?
Answer: Its Minimum inhibitory concentration is 128.

Question: And the Minimum inhibitory concentration ([7]; Streptococcus pneumoniae strain 2, Muller Hinton broth-cation adjusted)?
Answer: The Minimum inhibitory concentration was 128.

Question: And the Minimum inhibitory concentration ([7]; Streptococcus pneumoniae strain 3, Muller Hinton broth-cation adjusted)?
Answer: The Minimum inhibitory concentration was 128.

Question: And the Minimum inhibitory concentration ([7]; Streptococcus pneumoniae strain 4, Muller Hinton broth-cation adjusted)?
Answer: Its Minimum inhibitory concentration is 128.

Question: And the Minimum inhibitory concentration ([7]; Streptococcus pneumoniae strain 5, Muller Hinton broth-cation adjusted)?
Answer: The Minimum inhibitory concentration was 64.

Question: And the Minimum inhibitory concentration ([8]; Serratia marcescens strain 1, Muller Hinton broth-cation adjusted)?
Answer: The Minimum inhibitory concentration was over 128.

Question: And the Minimum inhibitory concentration ([8]; Serratia marcescens strain 2, Muller Hinton broth-cation adjusted)?
Answer: Its Minimum inhibitory concentration is over 128.

Question: And the Minimum inhibitory concentration ([8]; Serratia marcescens strain 3, Muller Hinton broth-cation adjusted)?
Answer: Its Minimum inhibitory concentration is over 128.

Question: And the Minimum inhibitory concentration ([8]; Serratia marcescens strain 4, Muller Hinton broth-cation adjusted)?
Answer: The Minimum inhibitory concentration was over 128.

Question: What about the Minimum inhibitory concentration ([8]; Serratia marcescens strain 5, Muller Hinton broth-cation adjusted) of the same molecule?
Answer: Its Minimum inhibitory concentration is over 128.

Question: What about the Minimum inhibitory concentration (C. glabrata; [9]) of the same molecule?
Answer: Its Minimum inhibitory concentration is 16.

Question: And the Minimum inhibitory concentration (C. glabrata; [10])?
Answer: Its Minimum inhibitory concentration is 16.

Question: What about the Minimum inhibitory concentration (C. glabrata; [11]) of the same molecule?
Answer: Its Minimum inhibitory concentration is 8.

Question: And the Minimum inhibitory concentration (C. glabrata; [12])?
Answer: Its Minimum inhibitory concentration is 64.

Question: And the Minimum inhibitory concentration (C. parapsilosis; [13])?
Answer: Its Minimum inhibitory concentration is 64.

Question: And the Minimum inhibitory concentration (C. parapsilosis; [14])?
Answer: Its Minimum inhibitory concentration is 64.

Question: What about the Minimum inhibitory concentration (C. parapsilosis; [15]) of the same molecule?
Answer: The Minimum inhibitory concentration was 32.

Question: And the Minimum inhibitory concentration (C. parapsilosis; [16])?
Answer: Its Minimum inhibitory concentration is 16.

Question: And the Minimum inhibitory concentration (Candida albicans; [17])?
Answer: The Minimum inhibitory concentration was 16.

Question: And the Minimum inhibitory concentration (Candida albicans; [18])?
Answer: The Minimum inhibitory concentration was 16.

Question: And the Minimum inhibitory concentration (Candida albicans; [19])?
Answer: The Minimum inhibitory concentration was 16.

Question: And the Minimum inhibitory concentration (Candida albicans; [20])?
Answer: The Minimum inhibitory concentration was 16.

Question: What about the Minimum inhibitory concentration (Candida albicans; [21]) of the same molecule?
Answer: The Minimum inhibitory concentration was 32.

Question: What about the Minimum inhibitory concentration (C. quillermondiae) of the same molecule?
Answer: Its Minimum inhibitory concentration is 16.
